Experiment: Stopper compatibility evaluation (Table 14), HPLC Method A; on RRT 0.38: key: BRL=below recordable limit; on RRT 0.49: key: BRL=below recordable limit; on RRT 0.67: key: BRL=below recordable limit; on RRT 0.79: key: BRL=below recordable limit; on RRT 0.89: key: BRL=below recordable limit; on RRT 1.17: key: BRL=below recordable limit; on RRT 1.55: key: BRL=below recordable limit; on RRT 1.89: key: BRL=below recordable limit; on RRT 1.96: key: BRL=below recordable limit; on RRT 2.01: key: BRL=below recordable limit; on RRT 2.26: key: BRL=below recordable limit
Type: physicochemical
Design: RRT 1.77 / Total / RRT 1.66: unit not given here
Description: Identical preparations prepared as described in Example 4 were stored in parallel in vials having either a 13 mm WPS S2-F451 4432/50 Gray B2-40 Westar RS stopper (West Pharmaceutical Services) or a 13 mm S2-F451 RS D 777-1 RB2 40 stopper (Daikyo Seiko, Ltd) under various conditions. Each of the stoppers has a FluoroTec® fluorocarbon film; the Westar 4432/50 stopper is chlorobutyl rubber, while the RB2-40 RS D 777-1 stopper is bromobutyl rubber. The presence of accumulation of degradant was assessed for each of the configurations (HPLC Method A).

[1] = Control at Room Temperature, 1 hours
[2] = Control at Room Temperature, 4 hours
[3] = RS-D 777-1 B2 40 from Daikyo Seiko Ltd. at 40° C., 1 hours
[4] = RS-D 777-1 B2 40 from Daikyo Seiko Ltd. at 40° C., 4 hours

C[N+]1(CC2CC2)CC[C@]23c4c5ccc(O)c4O[C@H]2C(=O)CC[C@@]3(O)[C@H]1C5 (stereo partly shown) [MNTX, methylnaltrexone bromide]
Initial (Control at 40° C., 1 hours): 20.3 mg | RRT 0.38 (Control at 40° C., 1 hours): BRL | RRT 0.49 (Control at 40° C., 1 hours): BRL | RRT 0.67 (Control at 40° C., 1 hours): BRL | RRT 0.79 (Control at 40° C., 1 hours): BRL | RRT 0.89 (Control at 40° C., 1 hours): BRL | RRT 1.17 (Control at 40° C., 1 hours): BRL | RRT 1.55 (Control at 40° C., 1 hours): BRL | RRT 1.66 (Control at 40° C., 1 hours): 0.12 | RRT 1.77 (Control at 40° C., 1 hours): BRL | RRT 1.89 (Control at 40° C., 1 hours): BRL | RRT 1.96 (Control at 40° C., 1 hours): BRL | RRT 2.01 (Control at 40° C., 1 hours): BRL | RRT 2.26 (Control at 40° C., 1 hours): BRL | Total (Control at 40° C., 1 hours): 0.12 | Initial (Control at 40° C., 4 hours): 20.3 mg | RRT 0.38 (Control at 40° C., 4 hours): BRL | RRT 0.49 (Control at 40° C., 4 hours): BRL | RRT 0.67 (Control at 40° C., 4 hours): BRL | RRT 0.79 (Control at 40° C., 4 hours): BRL | RRT 0.89 (Control at 40° C., 4 hours): BRL | RRT 1.17 (Control at 40° C., 4 hours): BRL | RRT 1.55 (Control at 40° C., 4 hours): BRL | RRT 1.66 (Control at 40° C., 4 hours): 0.12 | RRT 1.77 (Control at 40° C., 4 hours): BRL | RRT 1.89 (Control at 40° C., 4 hours): BRL | RRT 1.96 (Control at 40° C., 4 hours): BRL | RRT 2.01 (Control at 40° C., 4 hours): BRL | RRT 2.26 (Control at 40° C., 4 hours): BRL | Total (Control at 40° C., 4 hours): 0.12 | Initial [1]: 20.1 mg | RRT 0.38 [1]: BRL | RRT 0.49 [1]: BRL | RRT 0.67 [1]: BRL | RRT 0.79 [1]: BRL | RRT 0.89 [1]: BRL | RRT 1.17 [1]: BRL | RRT 1.55 [1]: BRL | RRT 1.66 [1]: 0.12 | RRT 1.77 [1]: BRL | RRT 1.89 [1]: BRL | RRT 1.96 [1]: BRL | RRT 2.01 [1]: BRL | RRT 2.26 [1]: BRL | Total [1]: 0.12 | Initial [2]: 20.0 mg | RRT 0.38 [2]: BRL | RRT 0.49 [2]: BRL | RRT 0.67 [2]: BRL | RRT 0.79 [2]: BRL | RRT 0.89 [2]: BRL | RRT 1.17 [2]: BRL | RRT 1.55 [2]: BRL | RRT 1.66 [2]: 0.12 | RRT 1.77 [2]: BRL | RRT 1.89 [2]: BRL | RRT 1.96 [2]: BRL | RRT 2.01 [2]: BRL | RRT 2.26 [2]: BRL | Total [2]: 0.12 | Initial (Initial): 20.2 mg | RRT 0.38 (Initial): BRL | RRT 0.49 (Initial): BRL | RRT 0.67 (Initial): BRL | RRT 0.79 (Initial): BRL | RRT 0.89 (Initial): BRL | RRT 1.17 (Initial): BRL | RRT 1.55 (Initial): BRL | RRT 1.66 (Initial): 0.12 | RRT 1.77 (Initial): BRL | RRT 1.89 (Initial): BRL | RRT 1.96 (Initial): BRL | RRT 2.01 (Initial): BRL | RRT 2.26 (Initial): BRL | Total (Initial): 0.12 | Initial [3]: 20.1 mg | RRT 0.38 [3]: BRL | RRT 0.49 [3]: BRL | RRT 0.67 [3]: BRL | RRT 0.79 [3]: BRL | RRT 0.89 [3]: BRL | RRT 1.17 [3]: BRL | RRT 1.55 [3]: BRL | RRT 1.66 [3]: 0.12 | RRT 1.77 [3]: 0.05 | RRT 1.89 [3]: BRL | RRT 1.96 [3]: BRL | RRT 2.01 [3]: BRL | RRT 2.26 [3]: BRL | Total [3]: 0.17 | RRT 0.38 [4]: BRL | RRT 0.49 [4]: BRL | RRT 0.67 [4]: BRL | RRT 0.79 [4]: BRL | RRT 0.89 [4]: BRL | RRT 1.17 [4]: BRL | RRT 1.55 [4]: BRL
